The results in this text go back to ChEMBL document CHEMBL1149799, “Bioactive peroxides as potential therapeutic agents” (Eur J Med Chem, 2008).

What is called IC50 is the concentration needed to halve the response being measured. Read a high IC50 as weaker potency in that assay. In general, inhibition refers to the percentage by which the read-out fell short of the control. By GI50 is commonly meant the concentration giving 50% growth inhibition. In general, pIC50 refers to the negative decadic logarithm of the IC50, by convention in mol/L.

pIC50: −log10 of the molar value. Values after ≈ are worked out from the molar mass of the structure shown.

One assay concerns A549. As to the kind of experiment: Cytotoxicity against human A549 cells. It is filed as functional, cell-based. The settings on record: Homo sapiens, A549.
Assay [1] has as its system HT-29. As to the kind of experiment: (§1) Cytotoxicity against human HT29 cells. It counts as functional, cell-based. Conditions: Homo sapiens, HT-29.
The subject of the next assay is Human alphaherpesvirus 1. As to the kind of experiment: Antiviral activity against herpes simplex virus type-1. It is filed as functional, organism-based.
Assay [2] has as its system P388. As to the kind of experiment: Cytotoxicity against mouse P388 cells. It counts as functional, cell-based. Conditions: Mus musculus, P388.
Assay [3] relates to Vesicular stomatitis virus. As to the kind of experiment: Antiviral activity against Vesicular stomatitis virus. It counts as functional, organism-based.
Assay [4] has as its system P388. Briefly: Cytotoxicity against mouse P388 cells at 0.5 ug/mL. It counts as functional.
The next assay has as its system HCT-8. As to the kind of experiment: Cytotoxicity against human HCT8 cells at 10 ug/mL. It counts as functional.
Another assay has as its system MCF7. Briefly: Cytotoxicity against human MCF7 cells. It counts as functional, cell-based. The settings on record: Homo sapiens, MCF7; read-out: GI50.
The next assay relates to SK-MEL-28. As to the kind of experiment: Cytotoxicity against human SK-MEL-28 cells. It counts as functional.
Another assay concerns SNB-19. As to the kind of experiment: Cytotoxicity against human SNB19 cells. It is filed as functional.
The nature of assay [5]: Cytotoxicity against mouse Ehrlich Ascites carcinoma by […] assay. It is filed as functional.
Another assay relates to LOX IMVI. Briefly: Cytotoxicity against human LOXI MVI cells. It is filed as functional, cell-based.
The subject of the next assay is UACC-257. As to the kind of experiment: Cytotoxicity against human UACC257 cells. It counts as functional.
For a further assay, the system named is HOP-92. As to the kind of experiment: Cytotoxicity against human HOP92 cells. It is filed as functional.
In a further assay the test system is SN12C. As to the kind of experiment: Cytotoxicity against human SN12C cells. It is filed as functional.
Another assay has as its system SK-MEL-2. Briefly: Cytotoxicity against human SK-MEL-2 cells. It is filed as functional.
For another assay, the system named is A498. Briefly: Cytotoxicity against human A498 cells. It counts as functional.
In a further assay the test system is OVCAR-3. As to the kind of experiment: Cytotoxicity against human OVCAR-3 cells. It is filed as functional, cell-based.
A further assay deals with UO-31. As to the kind of experiment: Cytotoxicity against human UO31 cells. It counts as functional.
The subject of the next assay is KM12. Briefly: Cytotoxicity against human KM12 cells. It counts as functional, cell-based.
A further assay relates to NCI-H460. As to the kind of experiment: Cytotoxicity against human NCI-H460 cells. It is filed as functional, cell-based. Conditions: Homo sapiens, NCI-H460; read-out: GI50.
A further assay relates to HCT-15. As to the kind of experiment: Cytotoxicity against human HCT15 cells. It counts as functional, cell-based.
A short description of assay [6]: Cytotoxicity against human CCRF-GEM cells. It counts as functional.
Assay [7] is described as follows: Cytotoxicity against human RPMI8266 cells. It is filed as functional.
Another assay relates to 786-0. As to the kind of experiment: Cytotoxicity against human renal 7860 cells by soft agar assay. It counts as functional.
For another assay, the system named is MDA-N. Briefly: Cytotoxicity against human MDA-N cells. It is filed as functional.
Another assay deals with ACHN. Briefly: Cytotoxicity against human ACHN cells. It counts as functional, cell-based.
Assay [8] in a line: Cytotoxicity against human HB60 cells. It counts as functional.
A further assay concerns SW-620. As to the kind of experiment: Cytotoxicity against human SW620 cells. It counts as functional.
In the next assay the test system is HOP-62. Briefly: Cytotoxicity against human HOP62 cells. It is filed as functional.
Assay [9] can be described thus: Cytotoxicity against human RES MDA-MB-231/ATCC cells. It counts as functional.
The next assay relates to SK-OV-3. Briefly: Cytotoxicity against human SK-OV-3 cells. It counts as functional, cell-based.
The subject of the next assay is CAKI-1. Briefly: Cytotoxicity against human CAKI1 cells. It counts as functional.
Another assay concerns HCT-116. As to the kind of experiment: Cytotoxicity against human HCT116 cells. It is filed as functional, cell-based.
The test system of another assay is OVCAR-4. As to the kind of experiment: Cytotoxicity against human OVCAR4 cells. It counts as functional, cell-based.
The subject of a further assay is EKVX. As to the kind of experiment: Cytotoxicity against human EKVX cells. It counts as functional.
For another assay, the system named is COLO 205. As to the kind of experiment: Cytotoxicity against human COLO205 cells.
A further assay has as its system NCI-H322M. Briefly: Cytotoxicity against human NCI-H322M cells. It counts as functional.
A further assay has as its system IGROV-1. Briefly: Cytotoxicity against human IGROV1 cells. It is filed as functional.
The subject of a further assay is UACC-62. Briefly: Cytotoxicity against human UACC62 cells. It is filed as functional.
For another assay, the system named is NCI-H23. As to the kind of experiment: Cytotoxicity against human NCI-H23 cells. It counts as functional, cell-based.
The subject of another assay is BT-549. Briefly: Cytotoxicity against human BT-549 cells. It counts as functional.
In assay [10] the test system is HT-29. The assay is described as §1. It counts as functional.
For another assay, the system named is U-251. As to the kind of experiment: Cytotoxicity against human U251 cells. It is filed as functional, cell-based.
In another assay the test system is PC-3. As to the kind of experiment: Cytotoxicity against human PC3 cells. It is filed as functional, cell-based. The settings on record: Homo sapiens, PC-3.
A further assay concerns T47D. As to the kind of experiment: Cytotoxicity against human T47D cells. It counts as functional.
For a further assay, the system named is TK-10. As to the kind of experiment: Cytotoxicity against human TK10 cells. It counts as functional.
Assay [11] is described as follows: Cytotoxicity against human MCF7/ADR-RES cells. It counts as functional. The settings on record: NCI/ADR-RES.
A further assay deals with OVCAR-5. As to the kind of experiment: Cytotoxicity against human OVCAR5 cells. It counts as functional, cell-based.
Assay [12] in a line: Cytotoxicity against human CFUGM. It counts as functional. Conditions: CFU-GM.
In a further assay the test system is SK-MEL-5. Briefly: Cytotoxicity against human SK-MEL-5 cells. It is filed as functional.
Assay [13] in a line: Cytotoxicity against human K652 cells. It counts as functional.
A further assay relates to MOLT-4. As to the kind of experiment: Cytotoxicity against human MOLT4 cells.
The subject of another assay is HCC 2998. As to the kind of experiment: Cytotoxicity against human HCC2998 cells. It counts as functional, cell-based.
A further assay has as its system DU-145. As to the kind of experiment: Cytotoxicity against human DU145 cells. Conditions: Homo sapiens, DU-145; read-out: GI50. It counts as functional, cell-based.
Assay [14] has as its target Protein kinase C epsilon type (Homo sapiens, UniProt Q02156). As to the kind of experiment: Antagonist activity at protein kinase C epsilon. It is filed as functional.
The nature of assay [15]: Cytotoxicity against human KB16 cells. It counts as functional, cell-based.
The target of assay [16] is Protein kinase C zeta type (Homo sapiens, UniProt Q05513). Briefly: Antagonist activity at protein kinase C zeta. It counts as functional.
The test system of assay [17] is P388. As to the kind of experiment: Cytotoxicity against mouse P388 cells at 0.05 ug/ml. It counts as functional.
A further assay concerns EL4. As to the kind of experiment: Cytotoxicity against […] cells. It is filed as functional, cell-based. Conditions: Mus musculus.
The target in assay [18] is Protein kinase C gamma type (Homo sapiens, UniProt P05129). Briefly: Antagonist activity at protein kinase C gamma. It is filed as functional.
Assay [19] in a line: Inhibition of human SKW3 cells adhesion to soluble ICAM1. It counts as functional, cell-based.

Sequence of Protein kinase C zeta type (Q05513 whole entry): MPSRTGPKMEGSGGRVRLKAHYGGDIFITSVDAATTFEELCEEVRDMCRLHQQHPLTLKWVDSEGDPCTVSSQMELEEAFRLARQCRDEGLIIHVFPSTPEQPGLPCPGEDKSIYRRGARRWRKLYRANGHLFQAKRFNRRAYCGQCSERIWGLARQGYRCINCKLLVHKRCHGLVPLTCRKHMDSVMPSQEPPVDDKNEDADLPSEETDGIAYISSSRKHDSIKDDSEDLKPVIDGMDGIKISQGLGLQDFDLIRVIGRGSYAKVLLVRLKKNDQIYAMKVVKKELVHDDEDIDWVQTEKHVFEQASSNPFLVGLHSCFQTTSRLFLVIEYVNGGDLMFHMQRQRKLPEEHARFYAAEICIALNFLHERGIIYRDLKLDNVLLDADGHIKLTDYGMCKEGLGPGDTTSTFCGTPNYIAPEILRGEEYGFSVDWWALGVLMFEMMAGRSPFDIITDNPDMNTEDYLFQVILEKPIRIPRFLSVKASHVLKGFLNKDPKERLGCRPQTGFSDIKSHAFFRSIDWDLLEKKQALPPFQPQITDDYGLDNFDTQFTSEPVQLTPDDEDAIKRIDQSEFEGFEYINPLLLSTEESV
Sequence of Protein kinase C epsilon type (Q02156 whole entry): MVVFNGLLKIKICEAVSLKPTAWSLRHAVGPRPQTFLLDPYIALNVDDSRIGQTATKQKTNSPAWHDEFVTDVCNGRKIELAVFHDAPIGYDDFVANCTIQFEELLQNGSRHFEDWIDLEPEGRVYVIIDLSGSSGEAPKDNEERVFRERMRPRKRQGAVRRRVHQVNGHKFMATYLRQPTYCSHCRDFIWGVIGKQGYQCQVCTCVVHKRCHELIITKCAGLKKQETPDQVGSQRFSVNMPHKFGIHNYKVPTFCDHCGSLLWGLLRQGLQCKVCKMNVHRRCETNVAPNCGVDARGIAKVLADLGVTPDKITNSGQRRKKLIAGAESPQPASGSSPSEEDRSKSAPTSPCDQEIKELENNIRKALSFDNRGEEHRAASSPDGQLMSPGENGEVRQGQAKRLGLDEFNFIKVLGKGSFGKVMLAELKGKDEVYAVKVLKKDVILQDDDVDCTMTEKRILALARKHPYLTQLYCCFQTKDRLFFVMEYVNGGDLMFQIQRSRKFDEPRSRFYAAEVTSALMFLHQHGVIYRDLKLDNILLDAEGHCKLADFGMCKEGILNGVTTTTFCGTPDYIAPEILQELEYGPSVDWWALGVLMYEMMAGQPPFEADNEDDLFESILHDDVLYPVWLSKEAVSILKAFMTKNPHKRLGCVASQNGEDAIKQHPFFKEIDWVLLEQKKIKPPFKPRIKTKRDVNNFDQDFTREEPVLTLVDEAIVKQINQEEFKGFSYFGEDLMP

For the compound `C[C@H](C(=O)O)[C@@H]1CC[C@](C)(CC[C@]2(C)[C@H](C)CC[C@@]3(C)C(C)(C)CCC[C@]32O)OO1` [MYCAPEROXIDE A], the IC50 in the assay with A549 stood at 0.5 µg/mL (≈ 1.18 µM); in the assay with HT-29 [1], 0.5 µg/mL (≈ 1.18 µM); in the assay on Human alphaherpesvirus 1, 0.25 µg/mL (≈ 0.589 µM); in the assay with P388 [2], 0.5 µg/mL (≈ 1.18 µM); in assay [3], 0.25 µg/mL (≈ 0.589 µM).

The compound `CCCCCCCCCCCCCCC[C@]1(C)C[C@](C)(CC(=O)O)OO1` came in with an inhibition at 0.5 µg/mL in the assay with P388 [4] of 90%. This compound also came in with an inhibition at 10 µg/mL in the assay on HCT-8 of 90%.

Take `CCCCCCCCCCCCCCCC[C@]1(C)C[C@](C)(CC(=O)O)OO1`: the inhibition at 0.5 µg/mL in the assay on P388 [4] is 90%. The compound further registered an inhibition at 10 µg/mL in the assay with HCT-8 of 90%.

With `C[C@H]1[C@H](O[C@H]2O[C@@H]3O[C@]4(C)CC[C@H]5[C@H](C)CC[C@@H]([C@H]2C)[C@@]35OO4)O[C@@H]2O[C@]3(C)CC[C@H]4[C@H](C)CC[C@@H]1[C@@]24OO3`, the GI50 with MCF7 was 1.51 µg/mL (≈ 2.74 µM); in the assay on SK-MEL-28 it was greater than 25 µg/mL; in the assay on SNB-19, greater than 25 µM; with LOX IMVI it was 1 µg/mL (≈ 1.82 µM); in the assay on UACC-257, greater than 25 µg/mL; with HOP-92, 3.66 µM. Also, the GI50 in the assay on SN12C was greater than 16.8 µg/mL; in the assay with SK-MEL-2, 16.9 µg/mL (≈ 30.7 µM); in the assay with A549, 18.7 µM; in the assay with A498 it was greater than 25 µg/mL; in the assay on OVCAR-3 it was 8.2 µg/mL (≈ 14.9 µM); in the assay with UO-31 it was 1.7 µg/mL (≈ 3.09 µM). For the same compound, the GI50 was 0.88 µM in the assay on KM12; greater than 25 µM with NCI-H460; 0.74 µM in the assay with HCT-15; 7.51 µM in [6]; 0.66 µM in assay [7]; 22 µg/mL (≈ 39.9 µM) in the assay on 786-0. The GI50 with MDA-N was 3.68 µg/mL (≈ 6.68 µM); with ACHN, 3.5 µg/mL (≈ 6.36 µM); in [8], 0.61 µM; in the assay with SW-620, 1.16 µM; in the assay with HOP-62, greater than 25 µM; in [9], greater than 25 µg/mL. Further, the GI50 is greater than 25 µg/mL with SK-OV-3; greater than 25 µg/mL with CAKI-1; 0.71 µM in the assay with HCT-116; 8.6 µg/mL (≈ 15.6 µM) with OVCAR-4; 2.16 µM with EKVX; 1.17 µM in the assay with COLO 205. The GI50 is greater than 25 µM in the assay with NCI-H322M; greater than 25 µg/mL in the assay on IGROV-1; 2 µg/mL (≈ 3.63 µM) in the assay on UACC-62; 1.15 µM with NCI-H23; 1.3 µg/mL (≈ 2.36 µM) with BT-549; 1.32 µM in the assay on HT-29 [10]. In addition, the GI50 is greater than 25 µM in the assay on U-251; 0.19 µg/mL (≈ 0.345 µM) in the assay on PC-3; 1.2 µg/mL (≈ 2.18 µM) in the assay on T47D; 1.7 µg/mL (≈ 3.09 µM) in the assay with TK-10; 1.45 µg/mL (≈ 2.63 µM) in [11]; greater than 25 µg/mL with OVCAR-5. The GI50 with SK-MEL-5 was greater than 3.6 µg/mL; in assay [13] it was 1.04 µM; with MOLT-4, 2.37 µM; with HCC 2998 it was greater than 25 µM; in the assay on DU-145, greater than 25 µg/mL. Further, the pIC50 is 4.51 in [5] and 4.28 in assay [12].

As for `CCCCCCCCCCCCCCCC[C@@]1(OC)C=C[C@@H](CC(=O)OC)OO1` [CHONDRILLIN], the results for the pIC50 in assay [14], in assay [16] and in [18] were 4.14, 3.98 and less than 3.44, respectively. Moreover, the EC50 in the assay with P388 [2] (read-out: ED50 (the source's name)) is greater than 10 µg/mL. The results for the IC50 (in assay [15]; in the assay on EL4) were 0.74 µg/mL (≈ 1.79 µM) and 0.4 µg/mL (≈ 0.969 µM), respectively. The compound further gave an inhibition at 0.05 µg/mL in the assay on P388 [17] of 50%.

For the compound `Cc1ccc2c(c1O)C(=O)c1c(cc(O)c(C(=O)O)c1C)[C@]2(C)OO[C@@]1(C)c2cc(O[C@H]3O[C@@H](CO)[C@@H](O)[C@@H](O)[C@@H]3O)c(C(=O)O)c(C)c2C(=O)c2c1ccc(C)c2O` [ADXANTHROMYCIN A], the half-inhibitory concentration (IC50) in assay [19] was found to be 18.8 µg/mL (≈ 23 µM).
